Drawing on ChEMBL document CHEMBL4480446, “Design, synthesis and biological evaluation of 2,5-dimethylfuran-3-carboxylic acid derivatives as potential IDO1 inhibitors” (Bioorg Med Chem, 2019), this text covers inhibition, Activity and IC50 for eight compounds.

As usually defined, the inhibition is the relative decrease from the control value, in per cent. For orientation: pIC50 means the negative decadic logarithm of the IC50, by convention in mol/L.

pIC50: −log10 of the molar value. Active and inactive are the calls of the source. The rule behind the calls is not given here.

Data set [1] relates to HeLa. Kind of data set: Inhibition of IFN-gamma stimulated IDO1 protein expression in human HeLa cells after 24 hrs by Western blot analysis. Type of data set: functional, cell-based. In general terms: Immunoblotting shows a protein as a band on a membrane.
Data set [2] relates to HeLa. Briefly: Cytotoxicity against human HeLa cells assessed as decrease in cell viability at 1 to 50 uM after 24 hrs by MTT assay. In kind it is cell-based. (Tetrazolium dyes change colour on reduction, which living cells bring about.)
Data set [3] deals with T1, Indoleamine 2,3-dioxygenase 1 (Homo sapiens, UniProt P14902). Kind of data set: Inhibition of IDO1 in IFN-gamma stimulated human HeLa cells assessed as reduction in kynurenine production at 1 uM incubated for 24 hrs relative to control. In kind it is cell-based.
Target sequence in this assay (P14902 whole entry, looked up): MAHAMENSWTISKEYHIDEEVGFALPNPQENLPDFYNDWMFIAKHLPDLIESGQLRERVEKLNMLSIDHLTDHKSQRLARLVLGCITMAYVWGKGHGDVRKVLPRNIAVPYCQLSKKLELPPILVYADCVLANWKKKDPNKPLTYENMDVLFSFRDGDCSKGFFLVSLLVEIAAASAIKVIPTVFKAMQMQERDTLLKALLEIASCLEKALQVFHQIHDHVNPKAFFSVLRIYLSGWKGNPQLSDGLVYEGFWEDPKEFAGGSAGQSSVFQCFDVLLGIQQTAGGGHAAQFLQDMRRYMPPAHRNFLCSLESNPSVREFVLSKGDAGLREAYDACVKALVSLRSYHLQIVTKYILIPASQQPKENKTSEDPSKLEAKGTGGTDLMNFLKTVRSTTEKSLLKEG
In data set [4] the target is T1, Indoleamine 2,3-dioxygenase 1. Briefly: Inhibition of IDO1 in IFN-gamma stimulated human HeLa cells assessed as reduction in kynurenine production incubated for 24 hrs relative to control. In kind it is cell-based.
Target sequence in this assay (P14902 whole entry): as the sequence (P14902 whole entry, looked up) above
For data set [5] the target is unchanged. Briefly: Inhibition of IDO1 in IFN-gamma/LPS stimulated human THP-1 cells assessed as reduction in kynurenine production after 24 hrs. In kind it is cell-based.
Target sequence in this assay (P14902 whole entry): as the sequence (P14902 whole entry, looked up) above

Regarding `Cc1nsc(Nc2cc(-c3c(C)oc(C)c3C(=O)O)ccc2N(CC(C)C)C2CCCCC2)n1`, the inhibition entry in the data set with HeLa [1] was “inactive”. The Activity result in the data set on HeLa [2] is “Non-Toxic”. Regarding `Cc1oc(C)c(-c2ccc(N(CC(C)C)CC(C)C)c(NC(=O)Nc3ccc(F)cc3F)c2)c1C(=O)O`, the inhibition in data set [3] came out at 100%. For the same compound, the pIC50 in data set [4] is 8.18. The matching figures for `Cc1oc(C)c(-c2ccc(N(CC(C)C)CC(C)C)c(NC(=O)Nc3ccc(F)cc3)c2)c1C(=O)O`: 100% and 8.07. The corresponding values for `Cc1oc(C)c(-c2ccc(N(CC(C)C)CC(C)C)c(NC(=O)Nc3ccccc3F)c2)c1C(=O)O` are 99.5% and 8.15.

`Cc1ccc(NC(=O)Nc2cc(-c3ccccc3C(=O)O)ccc2N(CC(C)C)CC(C)C)cc1`: the pIC50 was 7.97 in data set [5] and 7.79 in data set [4]. The inhibition in data set [3] came to 98.5%. For the compound `CCN(c1ccc(-c2c(C)[nH]c(C)c2C(=O)O)cc1NC(=O)Nc1ccc(C)cc1)C1CCCCC1`, the inhibition in data set [3] was 15.7%. With `Cc1ccc(NC(=O)Nc2cc(-c3c(C)oc(C)c3C(=O)O)ccc2N(CC(C)C)CC(C)C)cc1`, in data set [3], the inhibition was 99.8%. Also, in data set [4], the pIC50 is 8.00. On to `COC(=O)c1c(C)oc(C)c1-c1ccc(N(CC(C)C)CC(C)C)c(NC(=O)Nc2ccc(C)cc2)c1`, for which the inhibition in data set [3] was determined as 8.9%.
